In US20250084041A1, “ANTIMICROBIAL COMPOUNDS AND METHODS” (Curza Global, LLC, priority 2021, published 2025):
Where a name gives a salt, the structure may show the parent alone. Read-outs that look alike come from different tables or passages of the source.

Legend:
[1] = target: Rabbit Reticulocyte Lysate; assay: Rabbit Reticulocyte Lysate: inhibition of eukaryotic protein synthesis (luciferase); assay type: biochemical; settings: 30° C. 90 minutes, read-out: Retic. IC50
Procedure: Inhibition of eukaryotic protein synthesis was determined using the Rabbit Reticulocyte Lysate System, Nuclease-Treated from Promega (catalog #L-4960) with slight modifications to the manufacturer's protocol. Compounds were serial diluted in 0.5 mL microcentrifuge tubes by mixing and transferring 50 μL from the highest concentration to 50 μL of water, mixing and transferring 50 μL of this 2-fold dilution to 50 μL of water. This mixing and transferring was repeated so that there are a total of 8 tubes with serial dilutions of compound at 10× the desired screening concentration that are ultimately diluted to 1× by the addition of rabbit reticulocyte luciferase synthesis mixture. Serial dilutions of compounds were added ([…]) to wells in a black round bottom 96-well plate. Water (2.5 μL) was used as a “no inhibitor” control in 4 wells/plate. No RNA control reaction mixture ([…]; see below) was used as a control in 4 wells/plate for background luminescence. Rabbit reticulocyte luciferase synthesis mixture (22.5 μL; see below) was added to wells with compounds or water mixture and incubated at 30° C. for 90 minutes. Luciferase assay reagent (25 μL) was added with luminescence measured using a BioTek Synergy HTX plate reader. % Inhibition was determined relative to no inhibitor controls.
• 1,000 μL rabbit reticulocyte lysate • 5.7 μL Luciferase Control RNA (1 μg/μL) • 26 μL complete amino acid mixture • 395 μL water
• 70 μL rabbit reticulocyte lysate • 2 μL complete amino acid mixture • 28 μL water

A. baumannii (Ab) = assay: Broth microdilution MIC, A. baumannii; assay type: cell-based; settings: Acinetobacter baumannii, read-out: Ab + bicarb 25 (MIC)
Procedure: (§1) A certified BSL-2 laboratory was used for testing. Compounds were evaluated using the broth microdilution minimum inhibitory concentration (MIC) and minimum bactericidal concentration (MBC) assays defined by Clinical and Laboratory Standards Institute (CLSI) in the M26-A guideline against S. aureus (Sa), E. coli (Ec), K. pneumoniae (Kp), A. baumannii (Ab), E. faecalis (Ef) and P. aeruginosa (Pa).
(§2) MICs were determined using the Clinical Laboratory and Standards Institute (CLSI) Broth Microdilution Method with slight modification. Clinical and Laboratory Standards Institute (2012). “Methods for dilution antimicrobial susceptibility tests for bacteria that grow aerobically; approved standard, 9th ed. M07-A9. Clinical and Laboratory Standards Institute, Wayne, PA.” Serial two-fold dilutions of compounds are prepared in sterile clear round-bottom 96-well plates.
(§3) To prepare microdilution trays, two-fold dilutions of antimicrobial agent are prepared in growth medium: Cation-Adjusted Mueller-Hinton Broth (CAMHB), or CAMHB supplemented with sodium bicarbonate (25 mM final concentration prepared from a 1.0 M stock solution) or CAMHB supplemented with heat inactivated human serum (Fisher Cat. #BP2657100) 0-50% by adding 200 μL of the highest concentration to be tested (64 μg/mL, for example) in row A, mixing and transferring 100 μL from row A to 100 μL growth medium in row B, then repeating the mixing and transferring through row H of the 96-well plate, discarding the excess 100 μL remaining. This slight modification to the CLSI protocol enables evaluation of MICs for 3 compounds per plate in triplicate, albeit with only 8 compound dilutions (CLSI protocol enables 2 compounds in triplicate with 10 dilutions). Bacterial suspensions are added to a final concentration of 5×10^4 CFU/well by adding 5 μL of a 1:10 dilution of a 0.5 McFarland suspension (1×10^8 CFU/mL) for each bacterium evaluated. Bacterial suspensions were prepared using the growth method described by CLSI. Well-isolated colonies (3-5 from an agar plate) were selected using a sterile loop and used to inoculate a tube containing 4 mL of CAMHB. The cultures are incubated at 35±2° C. until it achieves or exceeds the turbidity of the 0.5 McFarland standard, determined by measuring A600nm (usually two to six hours). When growth exceeds a 0.5 McFarland standard, the turbidity is adjusted with broth to be equivalent to a 0.5 McFarland standard.

E. coli S30 extract = assay: E. coli S30 extract: inhibition of bacterial protein synthesis (luciferase); assay type: biochemical; settings: 37° C. 1 hour
Procedure: E. coli S30 extract: Inhibition of bacterial protein synthesis was determined using the E. coli S30 Extract System for Circular DNA (Promega catalog #L-2010) and Luciferase Assay Reagent (Promega catalog #E1500) with slight modifications to a published protocol. Fyfe, C., Sutcliffe, J. A. and Grossman, T. H. (2012) “Development and characterization of a Pseudomonas aeruginosa in vitro coupled transcription-translation assay system for evaluation of translation inhibitors” J. Microbiol. Methods 90(3), 256-261.
Compounds were serial diluted in 0.5 mL microcentrifuge tubes by mixing and transferring 50 μL from the highest concentration to 50 μL of water, mixing and transferring 50 μL of this 2-fold dilution to 50 μL of water. This mixing and transferring was repeated so that there are a total of 8 tubes with serial dilutions of compound at 10× the desired screening concentration that are ultimately diluted to 1× by the addition of S30 luciferase synthesis mixture. Serial dilutions of compounds were added (2 μL) to wells in a black round bottom 96-well plate. Water (2 μL) was used as a “no inhibitor” control in 4 wells/plate. No DNA control reaction mixture (20 μL; see below) was used as a control in 4 wells/plate for background luminescence. S30 luciferase synthesis mixture (18 μL; see below) was added to wells with compounds or water mixture and incubated at 37° C. for 1 hour. Reactions were stopped by transferring to 4° C. refrigerator for 5 minutes then 25 μL of luciferase activity mix was added. Luminescence was measured using a BioTek Synergy HTX plate reader. % Inhibition was determined relative to no inhibitor controls.
• 445 μL S30 extract, circular • 712 μL S30 Premix without amino acids • 4.45 μL pBESTluc™ DNA (1 μg/μL) • 78 μL complete amino acid mixture • 267 μL water
• 20 μL S30 extract, circular • 32 μL S30 Premix without amino acids • 7 μL complete amino acid mixture • 21 μL water

S. aureus (Sa) = assay: Broth microdilution MIC, S. aureus; assay type: cell-based; settings: Staphylococcus aureus, read-out: Sa + bicarb 25 (MIC)
Procedure: as §1, §2, §3

P. aeruginosa (Pa) = assay: Broth microdilution MIC, P. aeruginosa; assay type: cell-based; settings: Pseudomonas aeruginosa, read-out: Pa + bicarb 25 (MIC)
Procedure: as §1, §2, §3

E. faecalis (Ef) = assay: Broth microdilution MIC, E. faecalis; assay type: cell-based; settings: Enterococcus faecalis, read-out: Ef + bicarb 25 (MIC)
Procedure: as §1, §2, §3

E. coli (Ec) = assay: Broth microdilution MIC, E. coli; assay type: cell-based; settings: Escherichia coli, read-out: E. coli + bicarb 25 (MIC)
Procedure: as §1, §2, §3

SMILES	IC50 [1] [nM]	MIC (A. baumannii (Ab)) [µg/mL]	IC50 (E. coli S30 extract) [nM]	MIC (S. aureus (Sa)) [µg/mL]	MIC (P. aeruginosa (Pa)) [µg/mL]	MIC (E. faecalis (Ef)) [µg/mL]	MIC (E. coli (Ec)) [µg/mL]	MIC (A. baumannii (Ab); A. baumannii, CAMHB supplemented with sodium bicarbonate 25 mM) [µg/mL]	MIC (S. aureus (Sa); S. aureus, CAMHB supplemented with sodium bicarbonate 25 mM) [µg/mL]	MIC (P. aeruginosa (Pa); P. aeruginosa, CAMHB supplemented with sodium bicarbonate 25 mM) [µg/mL]	MIC (E. faecalis (Ef); E. faecalis, CAMHB supplemented with sodium bicarbonate 25 mM) [µg/mL]	MIC (E. coli (Ec); E. coli, CAMHB supplemented with sodium bicarbonate 25 mM) [µg/mL]
CC1(N)CCN(CC2CC=C(n3ccc(NC(=O)N4CCN(C(=O)C(C)(C)N)CC4)nc3=O)CC2)CC1 (single isomer, unassigned) [Compound 37, 4-(2-Amino-2-methylpropanoyl)-N-(1-(4-((4-amino-4-methylpiperidin-1-yl)methyl)cyclohex-1-en-1-yl)-2-oxo-1,2-dihydropyrimidin-4-yl)piperazine-1-carboxamide hydrochloride salt]	≥ 1000	> 32	< 500	< 8	> 32	< 8	< 8					
CC(C)(N)C(=O)N1CCN(C(=O)Nc2ccn(C3=CCC(CN[C@H]4CC[C@H](N)CC4)CC3)c(=O)n2)CC1 (single isomer, unassigned) [Compound 39, trans-4-(2-Amino-2-methylpropanoyl)-N-(1-(4-(((4-aminocyclohexyl)amino)methyl)cyclohex-1-en-1-yl)-2-oxo-1,2-dihydropyrimidin-4-yl)piperazine-1-carboxamide hydrochloride salt]	≥ 1000	> 32	< 500	< 8	> 32	< 8	< 8					
CC(C)(N)C(=O)N1CCN(C(=O)Nc2ccn(C3=CCC(CN4CCCC(N)CC4)CC3)c(=O)n2)CC1 (single isomer, unassigned) [Compound 41, 4-(2-Amino-2-methylpropanoyl)-N-(1-(4-((4-aminoazepan-1-yl)methyl)cyclohex-1-en-1-yl)-2-oxo-1,2-dihydropyrimidin-4-yl)piperazine-1-carboxamide hydrochloride salt]	≥ 1000	> 32	< 500	< 8	> 32	< 8	< 8					
CC(C)(N)C(=O)N1CCN(C(=O)Nc2ccn(C3=CCC(CN4CC[C@H](CN)C4)CC3)c(=O)n2)CC1 (stereo in doubt) [Compound 23, (S)-4-(2-Amino-2-methylpropanoyl)-N-(1-(4-((3-(aminomethyl)pyrrolidin-1-yl)methyl)cyclohex-1-en-1-yl)-2-oxo-1,2-dihydropyrimidin-4-yl)piperazine-1-carboxamide hydrochloride salt]	≥ 1000	> 32	< 500	< 8	> 32	8 to 32	< 8					
CC(C)(N)C(=O)N1CCN(C(=O)Nc2ccn(C3=CCC(CN4CC[C@@H](CN)C4)CC3)c(=O)n2)CC1 (stereo in doubt) [Compound 24, (R)-4-(2-Amino-2-methylpropanoyl)-N-(1-(4-((3-(aminomethyl)pyrrolidin-1-yl)methyl)cyclohex-1-en-1-yl)-2-oxo-1,2-dihydropyrimidin-4-yl)piperazine-1-carboxamide hydrochloride salt]	≥ 1000	> 32	< 500	< 8	> 32	> 32	< 8					
CC(C)(N)C(=O)N1CCN(C(=O)Nc2ccn(C3CCC(CN(CCF)C4CCC(N)CC4)CC3)c(=O)n2)CC1 (stereo in doubt) [Compound 48, trans-cis-4-(2-Amino-2-methylpropanoyl)-N-(1-(4-(((4-aminocyclohexyl)(2-fluoroethyl)amino)methyl)cyclohexyl)-2-oxo-1,2-dihydropyrimidin-4-yl)piperazine-1-carboxamide hydrochloride salt]	≥ 1000	> 32	< 500	8 to 32	> 32	8 to 32	8 to 32					
CC(C)(N)C(=O)N1CCN(C(=O)Nc2ccn(C3=CCC(CN[C@H]4CC[C@H](N)CC4)CC3)c(=O)n2)CC1 (stereo partly drawn) [Compound 1, 4-(2-Amino-2-methylpropanoyl)-N-(1-(4-(((trans-4-aminocyclohexyl)amino)methyl)cyclohex-1-en-1-yl)-2-oxo-1,2-dihydropyrimidin-4-yl)piperazine-1-carboxamide hydrochloride salt]	≥ 1000	> 32	< 500	< 8	> 32	8 to 32	< 8					
CC(C)(N)C(=O)N1CCN(C(=O)Nc2ccn(C3=CCC(CN4C[C@@H]5[C@@H](CN)[C@@H]5C4)CC3)c(=O)n2)CC1 (stereo partly drawn) [Compound 2, 4-(2-Amino-2-methylpropanoyl)-N-(1-(4-((exo-6-(aminomethyl)-3-azabicyclo[3.1.0]hexan-3-yl)methyl)cyclohex-1-en-1-yl)-2-oxo-1,2-dihydropyrimidin-4-yl)piperazine-1-carboxamide hydrochloride salt]	≥ 1000		< 500					> 32	< 8	> 32	< 8	< 8
CC(C)(N)C(=O)N1CCN(C(=O)Nc2ccn(C3=CCC(CN[C@H]4CC[C@H](N)C4)CC3)c(=O)n2)CC1 (stereo partly drawn) [Compound 3, 4-(2-Amino-2-methylpropanoyl)-N-(1-(4-((((1S,3S)-3-aminocyclopentyl)amino)methyl)cyclohex-1-en-1-yl)-2-oxo-1,2-dihydropyrimidin-4-yl)piperazine-1-carboxamide hydrochloride salt]	≥ 1000	> 32	< 500	< 8	> 32	> 32	< 8					
